Assay: xn = mol fraction of the nth substance listed
Conditions: Liquid, Vibrating wire viscometry, x1 = 1

CCCCO [butan-1-ol] + Cc1ccc(C)c(C)c1
viscosity [mPa·s]
Conditions	293.15 K	298.15 K	313.15 K	323.15 K	333.15 K	348.15 K	353.15 K
100 kPa	2.969	2.601	1.797	1.429	1.156	0.8579	0.7903
1000 kPa	3.001	2.622	1.813	1.44	1.172	0.8647	0.7943
5000 kPa	3.108	2.715	1.89	1.491	1.227	0.8956	0.8284
10000 kPa	3.244	2.834	1.967	1.556	1.29	0.9349	0.8637
20000 kPa	3.479	3.079	2.14	1.69	1.389	1.016	0.9473
30000 kPa	3.788	3.333	2.319	1.829	1.504	1.101	1.04
40000 kPa	4.078	3.599	2.48	1.975	1.624	1.189	1.102
50000 kPa	4.401	3.874	2.629	2.125	1.741	1.28	1.21
60000 kPa	4.74	4.16	2.852	2.281	1.867	1.375	1.295
70000 kPa	5.076	4.455	3.089	2.443	2.014	1.473	1.384
80000 kPa	5.438	4.761	3.247	2.61	2.137	1.575	1.473
100000 kPa	6.164	5.404	3.686	2.962	2.384	1.788	1.676
120000 kPa	6.979	6.087	4.192	3.335	2.633	2.015	1.857
140000 kPa	7.843	6.811	4.638	3.682	2.883	2.255	2.037
